Results on 1 compound are retold here after patent US5736376A, “Recombinant endothelin converting enzyme-2 and its use in ECE inhibitor screening” (Board of Regents, The University of Texas System, priority 1995, dated 1998).

pIC50: −log10 of the molar value. Read-outs that look alike come from different tables or passages of the source.

Experiment [1] concerns cultured endothelial cells. The note with it: cited from earlier work.
In experiment [2] the target is T1, ECE-1 (Bos taurus, UniProt P42891).
T1 construct: made in house
T1 sequence (P42891 1-754): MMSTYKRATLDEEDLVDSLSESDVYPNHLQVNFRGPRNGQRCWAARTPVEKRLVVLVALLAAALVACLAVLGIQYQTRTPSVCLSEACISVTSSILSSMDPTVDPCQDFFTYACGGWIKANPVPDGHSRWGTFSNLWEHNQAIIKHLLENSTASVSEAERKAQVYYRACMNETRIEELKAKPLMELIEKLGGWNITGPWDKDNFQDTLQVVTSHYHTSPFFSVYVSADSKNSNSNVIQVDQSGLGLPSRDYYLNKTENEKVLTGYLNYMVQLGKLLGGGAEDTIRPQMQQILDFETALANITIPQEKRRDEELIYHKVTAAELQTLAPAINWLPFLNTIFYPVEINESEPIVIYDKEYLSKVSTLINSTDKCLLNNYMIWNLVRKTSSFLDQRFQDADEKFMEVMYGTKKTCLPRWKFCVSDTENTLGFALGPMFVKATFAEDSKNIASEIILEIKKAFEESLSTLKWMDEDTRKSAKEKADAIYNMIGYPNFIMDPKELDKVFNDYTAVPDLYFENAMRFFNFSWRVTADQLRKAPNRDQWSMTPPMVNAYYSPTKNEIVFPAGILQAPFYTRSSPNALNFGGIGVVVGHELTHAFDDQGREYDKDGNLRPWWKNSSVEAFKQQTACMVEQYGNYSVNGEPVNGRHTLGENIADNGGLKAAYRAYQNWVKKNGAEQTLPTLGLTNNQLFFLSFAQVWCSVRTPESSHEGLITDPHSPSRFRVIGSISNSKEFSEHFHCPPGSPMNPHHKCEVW
The note with it: high concentrations; Xu et al., 1994; cited from earlier work.

The test system of experiment [3] is big endothelins. The conditions noted are these: whole animal preparations and isolated perfused tissues; cited from earlier work.
Experiment [4] addresses T1, ECE-1. In words: Protease inhibitor assay of ECE-1, solubilized CHO/ECE-1 membranes, big ET-1 conversion, pH 6.8. It is filed as biochemical, bovine. The note with it: sensitivity to protease inhibitors, Table 2.
Procedure: Solubilized crude membranes were prepared in parallel from CHO/ECE-2 and CHO/ECE-1 cells as described (Xu et al., 1994). For protease inhibitor studies, membranes were prepared without protease inhibitors. Standard reaction mixtures for the ECE-2 assay (50 μl) contained 0.1M 2-[N-morpholino]ethanesulfonic acid (MES) buffer (pH 5.5), 0.5M NaCl, 0.1 μM human big ET-1 and an enzyme fraction. ECE-1 assay reactions contained 0.1M phosphate buffer (pH 6.8) instead of the MES buffer. For the pH profiling and isopeptide selectivity studies, the buffer solution (0.1M) or the substrate (0.1 μM) was substituted as designated. For the inhibitor studies, the reactions were preincubated at 37° C. with protease inhibitor or vehicle for 15 min. Reactions were started by the addition of substrate, and incubated at 37° C. for 30 min in siliconized 0.5-ml microcentrifuge tubes. […] The mixture was then directly assayed for mature ET-1 as described (Suzuki et al., 1989). Duplicate assay wells were used for each enzyme reaction. […] Protein concentrations were determined by the Bradford method (Bio-Rad) using IgG as standard.
For experiment [5], the target named is T2, ECE-2 (Bos taurus, UniProt P0DPE2).
T2 construct: solubilized crude membranes or live cells
As to the kind of experiment: Protease inhibitor assay of ECE-2, solubilized CHO/ECE-2 membranes, big ET-1 conversion, pH 5.5. It is filed as biochemical, bovine. The conditions noted are these: in vitro (test tube), pH 5.5.
Procedure: In all subsequent studies, ECE-2 assays were performed at pH 5.5.
Solubilized crude membranes were prepared in parallel from CHO/ECE-2 and CHO/ECE-1 cells as described (Xu et al., 1994). For protease inhibitor studies, membranes were prepared without protease inhibitors. Standard reaction mixtures for the ECE-2 assay (50 μl) contained 0.1M 2-[N-morpholino]ethanesulfonic acid (MES) buffer (pH 5.5), 0.5M NaCl, 0.1 μM human big ET-1 and an enzyme fraction. […] For the inhibitor studies, the reactions were preincubated at 37° C. with protease inhibitor or vehicle for 15 min. Reactions were started by the addition of substrate, and incubated at 37° C. for 30 min in siliconized 0.5-ml microcentrifuge tubes. […] The mixture was then directly assayed for mature ET-1 as described (Suzuki et al., 1989). Duplicate assay wells were used for each enzyme reaction.

Experiment [6] deals with T2, ECE-2. As to the kind of experiment: Double-transfection live cell assay: mature ET-1 secretion by CHO/ECE-2 cells transfected with preproET-1 cDNA. It counts as cell-based, bovine. The note with it: production of mature ET-1; 12 h; ECE-2-preproET-1 double transfected cells; read-out: apparent IC50, live cell assay, CHO/ECE-2.
Procedure: Production of mature ET-1 by CHO/ECE-2 cells transiently transfected with preproET-1 cDNA: Cleavage of endogenously produced big ET-1. Doubly transfected cells were cultured for 12 h in the absence or presence of the designated concentrations of ECE inhibitors, and mature ET-1 in the conditioned medium was determined. Negative control studies with parental CHO cells are shown by dashed lines.
CHO/ECE-2 cells and untransfected CHO cells were transiently transfected in parallel with a preproET-1 construct, and mature ET-1 secreted from these cells into the medium was determined by EIA.
CHO-K1 cells were cultured as described (Xu et al., 1994). Since many batches of tissue culture-grade trypsin preparations contained high levels of metalloprotease contaminants with an ECE-like activity, a highly purified crystallized preparation of trypsin (Sigma, Catalog No. T7418) was dissolved in phosphate-buffered saline at 0.013% (w/v) and used for all trypsinization procedures. […] Twelve hours after the transient transfection, cells were refed with fresh medium with or without ECE inhibitors. The medium was conditioned for an additional 12 h and directly subjected to enzyme immunoassay (EIA) for mature ET-1 (Suzuki et al., 1989).
For experiment [7], the system named is this family of metalloproteases. The conditions noted are these: Opgenorth et al., 1992; cited from earlier work.

T2 sequence (P0DPE2 97-883): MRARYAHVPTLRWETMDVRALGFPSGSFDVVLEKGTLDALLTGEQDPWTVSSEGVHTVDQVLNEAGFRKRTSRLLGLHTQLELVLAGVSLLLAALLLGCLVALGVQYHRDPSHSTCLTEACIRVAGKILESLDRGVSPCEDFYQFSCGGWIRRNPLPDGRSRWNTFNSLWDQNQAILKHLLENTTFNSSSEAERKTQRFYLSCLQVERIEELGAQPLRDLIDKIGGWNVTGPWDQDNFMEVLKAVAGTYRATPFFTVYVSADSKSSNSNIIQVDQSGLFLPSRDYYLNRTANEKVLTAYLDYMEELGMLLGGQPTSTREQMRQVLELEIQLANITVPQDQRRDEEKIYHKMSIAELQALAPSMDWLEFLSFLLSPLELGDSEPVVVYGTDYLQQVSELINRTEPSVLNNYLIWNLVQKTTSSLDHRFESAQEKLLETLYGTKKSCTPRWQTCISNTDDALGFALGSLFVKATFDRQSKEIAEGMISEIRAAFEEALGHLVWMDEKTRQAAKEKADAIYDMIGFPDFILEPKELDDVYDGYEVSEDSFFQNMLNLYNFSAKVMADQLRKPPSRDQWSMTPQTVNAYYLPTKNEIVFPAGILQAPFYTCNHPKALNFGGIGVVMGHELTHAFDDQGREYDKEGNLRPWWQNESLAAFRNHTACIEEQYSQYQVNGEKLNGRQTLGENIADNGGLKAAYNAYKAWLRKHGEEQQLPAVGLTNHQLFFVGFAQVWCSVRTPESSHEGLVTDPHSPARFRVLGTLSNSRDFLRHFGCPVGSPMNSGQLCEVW

For `CC(C)C[C@H](NP(=O)(O)O[C@@H]1O[C@@H](C)[C@H](O)[C@@H](O)[C@H]1O)C(=O)N[C@@H](Cc1c[nH]c2ccccc12)C(=O)O` [Phosphoramidon], the “inhibition of secretion of mature ET-1 / processing of endogenous big ET-1 (words)” value in experiment [1] is recorded as “inhibit the secretion of mature ET-1”; in experiment [1] (listed as phosphoramidon) it was “inhibited”. Besides, in experiment [2], the “inhibition of big ET-1 conversion in ECE-1/preproET-1 doubly transfected cells” value was “capable of inhibiting the conversion of big ET-1”. Also, the “inhibition of vasopressor actions of exogenous big endothelins” value in experiment [3] is “inhibited”. In experiment [4], the “inhibition of ECE-1” value is recorded as “inhibited”. In addition, the pIC50 in experiment [5] was 8.40; in experiment [6], roughly 4.70. For the same compound, the type of inhibition result in experiment [7] is given as “competitive inhibitor”.
